Measurements: the kinase profiling compilation of Christmann-Franck et al. (2016)

What was measured:
Assay in all cases: KINOMEscan competition binding
Conditions in all cases: compound 10.0 µM
[1] = biological target: PIP5K1A (human) (UniProt Q99755)
[2] = biological target: MAP2K4 (human) (UniProt P45985)
[3] = biological target: PTK6 (human) (UniProt Q13882)
[4] = biological target: ACVR2B (human) (UniProt Q13705)
[5] = biological target: MAPK8 (human) (UniProt P45983)
[6] = test system: KIT (human), P10721 [L576P]
[7] = test system: PIK3CA (human), P42336 [E545K]
[8] = biological target: CDK19 (human) (UniProt Q9BWU1)
[9] = biological target: CDK4 CCND1 (human) (UniProt P11802+P24385)
[10] = test system: FLT3 (human), P36888 [ITD]
[11] = biological target: NEK6 (human) (UniProt Q9HC98)
[12] = biological target: TAOK3 (human) (UniProt Q9H2K8)
[13] = biological target: BMX (human) (UniProt P51813)
[14] = biological target: MYO3A (human) (UniProt Q8NEV4)
[15] = biological target: NTRK1 (human) (UniProt P04629)
[16] = biological target: PRKCH (human) (UniProt P24723)
[17] = test system: RET (human), P07949 [M918T]
[18] = biological target: CAMK1D (human) (UniProt Q8IU85)
[19] = biological target: BRAF (human) (UniProt P15056)
[20] = biological target: MAP4K5 (human) (UniProt Q9Y4K4)
[21] = biological target: ACVRL1 (human) (UniProt P37023)
[22] = biological target: PLK2 (human) (UniProt Q9NYY3)
[23] = biological target: NEK4 (human) (UniProt P51957)
[24] = biological target: FGFR2 (human) (UniProt P21802)
[25] = biological target: DYRK1A (human) (UniProt Q13627)
[26] = test system: PIK3CA (human), P42336 [E545A]
[27] = biological target: RAF1 (human) (UniProt P04049)
[28] = biological target: PLK1 (human) (UniProt P53350)
[29] = biological target: CAMK2D (human) (UniProt Q13557)
[30] = biological target: RIOK3 (human) (UniProt O14730)
[31] = biological target: CDKL3 (human) (UniProt Q8IVW4)
[32] = biological target: MAP3K2 (human) (UniProt Q9Y2U5)
[33] = biological target: CSNK1A1L (human) (UniProt Q8N752)
[34] = biological target: CDK2 (human) (UniProt P24941)
[35] = biological target: MERTK (human) (UniProt Q12866)
[36] = biological target: RPS6KA2 KD2 (human) (UniProt Q15349)
[37] = biological target: AAK1 (human) (UniProt Q2M2I8)
[38] = biological target: MAP3K12 (human) (UniProt Q12852)
[39] = biological target: JAK1 JH2 pseudokinase (human) (UniProt P23458)
[40] = test system: KIT (human), P10721 [V559D/T670I]
[41] = biological target: MET (human) (UniProt P08581)

Sequence of MYO3A (human) (Q8NEV4 whole entry, looked up): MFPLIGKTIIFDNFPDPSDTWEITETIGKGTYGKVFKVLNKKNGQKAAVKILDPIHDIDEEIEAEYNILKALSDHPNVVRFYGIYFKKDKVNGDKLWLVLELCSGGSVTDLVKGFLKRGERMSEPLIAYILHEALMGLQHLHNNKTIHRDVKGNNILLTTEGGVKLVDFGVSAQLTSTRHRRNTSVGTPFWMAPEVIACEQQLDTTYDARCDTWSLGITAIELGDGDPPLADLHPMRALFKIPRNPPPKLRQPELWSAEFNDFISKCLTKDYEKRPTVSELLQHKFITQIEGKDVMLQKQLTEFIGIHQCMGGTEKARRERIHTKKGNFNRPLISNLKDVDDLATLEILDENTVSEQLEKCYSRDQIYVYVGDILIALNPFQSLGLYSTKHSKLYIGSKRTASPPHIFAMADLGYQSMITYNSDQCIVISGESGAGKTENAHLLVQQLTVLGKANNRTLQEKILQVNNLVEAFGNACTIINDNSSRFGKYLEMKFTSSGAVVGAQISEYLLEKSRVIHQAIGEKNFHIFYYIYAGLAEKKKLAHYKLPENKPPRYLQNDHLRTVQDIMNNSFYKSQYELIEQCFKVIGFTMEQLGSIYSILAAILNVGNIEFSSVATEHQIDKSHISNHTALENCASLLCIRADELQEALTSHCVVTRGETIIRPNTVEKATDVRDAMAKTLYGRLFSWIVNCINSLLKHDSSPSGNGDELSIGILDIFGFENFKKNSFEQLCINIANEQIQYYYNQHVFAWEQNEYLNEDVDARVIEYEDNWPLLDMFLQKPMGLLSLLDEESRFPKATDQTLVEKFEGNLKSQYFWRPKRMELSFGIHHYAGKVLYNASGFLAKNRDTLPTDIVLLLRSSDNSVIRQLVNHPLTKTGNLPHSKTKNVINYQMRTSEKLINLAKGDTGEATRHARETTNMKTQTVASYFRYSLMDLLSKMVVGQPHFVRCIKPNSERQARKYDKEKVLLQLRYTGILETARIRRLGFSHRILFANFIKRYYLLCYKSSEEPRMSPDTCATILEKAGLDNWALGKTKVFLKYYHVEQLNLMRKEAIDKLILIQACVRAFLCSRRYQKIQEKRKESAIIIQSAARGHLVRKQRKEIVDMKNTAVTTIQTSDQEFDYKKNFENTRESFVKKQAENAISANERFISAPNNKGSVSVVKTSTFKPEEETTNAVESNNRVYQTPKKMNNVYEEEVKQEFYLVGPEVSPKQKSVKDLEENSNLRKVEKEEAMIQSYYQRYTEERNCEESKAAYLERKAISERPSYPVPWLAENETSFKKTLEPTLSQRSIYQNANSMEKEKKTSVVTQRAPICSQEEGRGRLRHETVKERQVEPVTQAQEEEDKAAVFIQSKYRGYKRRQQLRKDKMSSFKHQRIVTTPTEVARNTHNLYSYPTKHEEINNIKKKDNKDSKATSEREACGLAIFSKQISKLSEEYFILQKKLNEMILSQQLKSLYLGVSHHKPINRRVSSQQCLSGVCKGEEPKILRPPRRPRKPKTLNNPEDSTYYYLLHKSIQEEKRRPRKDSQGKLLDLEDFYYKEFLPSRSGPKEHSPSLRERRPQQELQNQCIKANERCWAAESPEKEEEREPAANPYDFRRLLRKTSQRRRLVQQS
Sequence of ACVRL1 (human) (P37023 whole entry, looked up): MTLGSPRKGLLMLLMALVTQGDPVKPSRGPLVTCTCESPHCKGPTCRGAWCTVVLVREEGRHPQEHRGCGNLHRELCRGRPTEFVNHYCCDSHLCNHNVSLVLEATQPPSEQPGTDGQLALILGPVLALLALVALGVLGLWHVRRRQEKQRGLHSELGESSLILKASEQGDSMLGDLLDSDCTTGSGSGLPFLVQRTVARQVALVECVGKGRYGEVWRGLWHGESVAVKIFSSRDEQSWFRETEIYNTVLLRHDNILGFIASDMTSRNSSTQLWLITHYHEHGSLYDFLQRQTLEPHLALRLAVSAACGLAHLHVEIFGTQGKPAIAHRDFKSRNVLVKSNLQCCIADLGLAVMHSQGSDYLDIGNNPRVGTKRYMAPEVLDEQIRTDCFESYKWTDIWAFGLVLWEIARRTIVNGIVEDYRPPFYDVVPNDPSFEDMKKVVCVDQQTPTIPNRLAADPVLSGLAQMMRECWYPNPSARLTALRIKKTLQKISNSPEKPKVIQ
Sequence of FLT3 (human), P36888 [ITD] (P36888 whole entry, looked up, change not shown): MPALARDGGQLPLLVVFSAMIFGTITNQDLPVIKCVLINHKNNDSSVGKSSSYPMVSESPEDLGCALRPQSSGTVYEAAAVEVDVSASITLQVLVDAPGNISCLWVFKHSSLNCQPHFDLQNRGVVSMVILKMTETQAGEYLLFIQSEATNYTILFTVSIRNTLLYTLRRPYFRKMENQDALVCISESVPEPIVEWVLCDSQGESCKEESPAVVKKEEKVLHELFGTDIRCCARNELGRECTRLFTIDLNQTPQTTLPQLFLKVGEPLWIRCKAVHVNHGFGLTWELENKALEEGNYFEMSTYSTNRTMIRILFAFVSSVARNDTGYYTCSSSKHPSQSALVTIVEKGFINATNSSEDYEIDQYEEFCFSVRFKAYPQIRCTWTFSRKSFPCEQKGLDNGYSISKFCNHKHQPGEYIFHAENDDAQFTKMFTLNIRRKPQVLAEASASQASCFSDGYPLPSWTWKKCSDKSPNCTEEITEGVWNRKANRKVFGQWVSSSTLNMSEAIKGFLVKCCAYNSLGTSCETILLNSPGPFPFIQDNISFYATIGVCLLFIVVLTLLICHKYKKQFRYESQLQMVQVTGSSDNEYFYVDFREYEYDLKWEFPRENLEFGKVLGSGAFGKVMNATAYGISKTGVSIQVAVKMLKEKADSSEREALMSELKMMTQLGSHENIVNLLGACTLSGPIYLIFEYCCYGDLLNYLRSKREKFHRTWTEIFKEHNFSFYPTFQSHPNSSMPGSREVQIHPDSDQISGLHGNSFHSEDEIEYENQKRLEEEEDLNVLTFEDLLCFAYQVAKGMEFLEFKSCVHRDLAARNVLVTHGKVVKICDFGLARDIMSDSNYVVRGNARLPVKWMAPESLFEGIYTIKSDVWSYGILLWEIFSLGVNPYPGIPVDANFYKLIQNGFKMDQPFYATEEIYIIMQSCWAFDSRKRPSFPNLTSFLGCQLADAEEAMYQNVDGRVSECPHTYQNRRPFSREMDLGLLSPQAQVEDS
Sequence of KIT (human), P10721 [L576P] (P10721 whole entry L576P, looked up): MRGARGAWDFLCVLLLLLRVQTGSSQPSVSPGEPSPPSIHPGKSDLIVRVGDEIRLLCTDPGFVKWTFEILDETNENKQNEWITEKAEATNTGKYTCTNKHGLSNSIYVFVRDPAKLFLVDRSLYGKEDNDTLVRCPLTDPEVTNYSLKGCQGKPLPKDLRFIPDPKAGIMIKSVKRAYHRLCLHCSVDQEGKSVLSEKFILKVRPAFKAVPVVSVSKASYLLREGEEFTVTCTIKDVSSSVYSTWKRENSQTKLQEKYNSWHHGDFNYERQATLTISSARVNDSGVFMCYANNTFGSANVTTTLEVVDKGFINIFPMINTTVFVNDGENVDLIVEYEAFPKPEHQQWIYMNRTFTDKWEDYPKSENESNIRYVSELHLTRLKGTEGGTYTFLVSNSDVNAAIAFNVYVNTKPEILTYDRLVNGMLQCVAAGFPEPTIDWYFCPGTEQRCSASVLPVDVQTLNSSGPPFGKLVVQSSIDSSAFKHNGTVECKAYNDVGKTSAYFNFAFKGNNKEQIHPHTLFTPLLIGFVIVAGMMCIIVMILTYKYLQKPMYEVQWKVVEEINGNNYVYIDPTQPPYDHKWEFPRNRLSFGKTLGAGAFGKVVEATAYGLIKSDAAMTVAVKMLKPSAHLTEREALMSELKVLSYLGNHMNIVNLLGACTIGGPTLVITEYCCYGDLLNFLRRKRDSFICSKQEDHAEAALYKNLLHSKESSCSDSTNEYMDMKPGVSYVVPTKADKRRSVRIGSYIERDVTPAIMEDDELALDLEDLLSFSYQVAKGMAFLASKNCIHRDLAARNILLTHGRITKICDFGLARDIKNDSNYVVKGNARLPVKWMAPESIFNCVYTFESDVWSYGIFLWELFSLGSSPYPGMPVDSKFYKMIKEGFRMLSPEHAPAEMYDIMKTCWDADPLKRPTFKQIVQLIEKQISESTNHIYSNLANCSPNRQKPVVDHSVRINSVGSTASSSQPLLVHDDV
Sequence of PTK6 (human) (Q13882 whole entry, looked up): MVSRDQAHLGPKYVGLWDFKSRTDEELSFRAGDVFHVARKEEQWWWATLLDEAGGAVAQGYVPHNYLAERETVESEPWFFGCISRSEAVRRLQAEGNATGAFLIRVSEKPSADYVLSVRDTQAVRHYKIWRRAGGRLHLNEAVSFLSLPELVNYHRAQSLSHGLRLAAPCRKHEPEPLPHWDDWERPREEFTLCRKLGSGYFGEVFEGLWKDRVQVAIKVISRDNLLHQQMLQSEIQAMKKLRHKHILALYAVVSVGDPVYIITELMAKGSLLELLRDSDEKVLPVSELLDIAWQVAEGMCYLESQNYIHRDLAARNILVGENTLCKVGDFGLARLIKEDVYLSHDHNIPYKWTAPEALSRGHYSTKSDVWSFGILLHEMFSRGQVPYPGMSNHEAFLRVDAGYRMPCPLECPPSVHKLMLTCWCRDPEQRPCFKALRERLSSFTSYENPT
Sequence of ACVR2B (human) (Q13705 whole entry, looked up): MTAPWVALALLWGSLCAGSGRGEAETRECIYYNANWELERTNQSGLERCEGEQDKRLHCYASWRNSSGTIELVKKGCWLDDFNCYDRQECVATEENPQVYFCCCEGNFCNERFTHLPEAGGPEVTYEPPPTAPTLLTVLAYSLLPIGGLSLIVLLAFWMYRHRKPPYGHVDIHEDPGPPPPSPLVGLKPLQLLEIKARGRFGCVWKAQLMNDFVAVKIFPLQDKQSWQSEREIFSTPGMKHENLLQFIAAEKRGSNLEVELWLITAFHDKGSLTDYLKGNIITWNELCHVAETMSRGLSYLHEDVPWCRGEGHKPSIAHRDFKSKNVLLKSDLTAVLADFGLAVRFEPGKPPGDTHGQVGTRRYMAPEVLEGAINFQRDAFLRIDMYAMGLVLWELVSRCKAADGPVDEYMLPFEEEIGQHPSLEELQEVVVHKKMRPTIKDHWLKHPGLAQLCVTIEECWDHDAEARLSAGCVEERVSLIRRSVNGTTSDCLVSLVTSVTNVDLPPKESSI
Sequence of KIT (human), P10721 [V559D/T670I] (P10721 whole entry V559D/T670I, looked up): as the sequence (P10721 whole entry L576P, looked up) above, with V559D, P576L, T670I counted along it

Q: `COC(=O)Nc1ccc(-c2nc(N3CCOCC3)c3cnn(C4CCN(C(=O)OC)CC4)c3n2)cc1` was tested. Which kinase still bound, per cent of control [1] did it give?
A: Its kinase still bound, per cent of control is 98%.

Q: What about the kinase still bound, per cent of control [2] of the same compound?
A: The kinase still bound, per cent of control was 74%.

Q: And the kinase still bound, per cent of control [3]?
A: The kinase still bound, per cent of control was 88%.

Q: What about the kinase still bound, per cent of control [4] of the same compound?
A: Its kinase still bound, per cent of control is 100%.

Q: And the kinase still bound, per cent of control [5]?
A: The kinase still bound, per cent of control was 100%.

Q: What about the kinase still bound, per cent of control [6] of the same compound?
A: The kinase still bound, per cent of control was 100%.

Q: What about the kinase still bound, per cent of control [7] of the same compound?
A: The kinase still bound, per cent of control was 4.9%.

Q: What about the per cent of control [8] of the same compound?
A: The per cent of control was 98%.

Q: And the per cent of control [9]?
A: The per cent of control was 100%.

Q: What about the kinase still bound, per cent of control [10] of the same compound?
A: The kinase still bound, per cent of control was 100%.

Q: What about the kinase still bound, per cent of control [11] of the same compound?
A: Its kinase still bound, per cent of control is 100%.

Q: And the kinase still bound, per cent of control [12]?
A: Its kinase still bound, per cent of control is 94%.

Q: What about the kinase still bound, per cent of control [13] of the same compound?
A: Its kinase still bound, per cent of control is 94%.

Q: And the kinase still bound, per cent of control [14]?
A: Its kinase still bound, per cent of control is 100%.

Q: And the kinase still bound, per cent of control [15]?
A: Its kinase still bound, per cent of control is 71%.

Q: And the kinase still bound, per cent of control [16]?
A: The kinase still bound, per cent of control was 92%.

Q: And the kinase still bound, per cent of control [17]?
A: Its kinase still bound, per cent of control is 87%.

Q: What about the kinase still bound, per cent of control [18] of the same compound?
A: Its kinase still bound, per cent of control is 85%.

Q: What about the kinase still bound, per cent of control [19] of the same compound?
A: Its kinase still bound, per cent of control is 74%.

Q: What about the kinase still bound, per cent of control [20] of the same compound?
A: The kinase still bound, per cent of control was 100%.

Q: What about the kinase still bound, per cent of control [21] of the same compound?
A: The kinase still bound, per cent of control was 100%.

Q: And the kinase still bound, per cent of control [22]?
A: The kinase still bound, per cent of control was 96%.

Q: And the kinase still bound, per cent of control [23]?
A: Its kinase still bound, per cent of control is 90%.

Q: What about the kinase still bound, per cent of control [24] of the same compound?
A: Its kinase still bound, per cent of control is 100%.

Q: And the kinase still bound, per cent of control [25]?
A: Its kinase still bound, per cent of control is 88%.

Q: And the kinase still bound, per cent of control [26]?
A: Its kinase still bound, per cent of control is 5.5%.

Q: What about the kinase still bound, per cent of control [27] of the same compound?
A: Its kinase still bound, per cent of control is 91%.

Q: What about the kinase still bound, per cent of control [28] of the same compound?
A: Its kinase still bound, per cent of control is 90%.

Q: What about the kinase still bound, per cent of control [29] of the same compound?
A: Its kinase still bound, per cent of control is 100%.

Q: And the kinase still bound, per cent of control [30]?
A: The kinase still bound, per cent of control was 100%.

Q: What about the per cent of control [31] of the same compound?
A: Its per cent of control is 64%.

Q: What about the kinase still bound, per cent of control [32] of the same compound?
A: The kinase still bound, per cent of control was 89%.

Q: And the kinase still bound, per cent of control [33]?
A: The kinase still bound, per cent of control was 91%.

Q: What about the per cent of control [34] of the same compound?
A: Its per cent of control is 91%.

Q: What about the kinase still bound, per cent of control [35] of the same compound?
A: The kinase still bound, per cent of control was 100%.

Q: What about the kinase still bound, per cent of control [36] of the same compound?
A: Its kinase still bound, per cent of control is 100%.

Q: What about the kinase still bound, per cent of control [37] of the same compound?
A: Its kinase still bound, per cent of control is 86%.

Q: What about the per cent of control [38] of the same compound?
A: The per cent of control was 97%.

Q: And the kinase still bound, per cent of control [39]?
A: The kinase still bound, per cent of control was 74%.

Q: And the kinase still bound, per cent of control [40]?
A: Its kinase still bound, per cent of control is 100%.

Q: What does the source list for `COc1ccc(-c2ccc3c(N4CCOCC4)nc(N4C[C@@H](C)O[C@@H](C)C4)nc3n2)cc1CO`?
A: kinase still bound, per cent of control [1]: 97%; kinase still bound, per cent of control [2]: 88%; kinase still bound, per cent of control [3]: 100%; kinase still bound, per cent of control [4]: 100%; kinase still bound, per cent of control [5]: 87%; kinase still bound, per cent of control [6]: 93%; kinase still bound, per cent of control [7]: 2%; per cent of control [8]: 73%; per cent of control [9]: 70%; kinase still bound, per cent of control [10]: 100%; kinase still bound, per cent of control [11]: 96%; kinase still bound, per cent of control [12]: 90%; kinase still bound, per cent of control [13]: 86%; kinase still bound, per cent of control [14]: 97%; kinase still bound, per cent of control [15]: 72%; kinase still bound, per cent of control [16]: 100%; kinase still bound, per cent of control [17]: 100%; kinase still bound, per cent of control [18]: 89%; kinase still bound, per cent of control [19]: 81%; kinase still bound, per cent of control [20]: 96%; kinase still bound, per cent of control [21]: 100%; kinase still bound, per cent of control [22]: 100%; kinase still bound, per cent of control [23]: 76%; kinase still bound, per cent of control [24]: 99%; kinase still bound, per cent of control [25]: 94%; kinase still bound, per cent of control [26]: 2.4%; kinase still bound, per cent of control [27]: 100%; kinase still bound, per cent of control [28]: 55%; kinase still bound, per cent of control [29]: 100%; kinase still bound, per cent of control [30]: 100%; kinase still bound, per cent of control [41]: 88%; per cent of control [31]: 90%; kinase still bound, per cent of control [32]: 78%; kinase still bound, per cent of control [33]: 97%; per cent of control [34]: 77%; kinase still bound, per cent of control [35]: 100%; kinase still bound, per cent of control [36]: 94%; kinase still bound, per cent of control [37]: 93%; per cent of control [38]: 100%; kinase still bound, per cent of control [39]: 100%; kinase still bound, per cent of control [40]: 80%
